Experimental data: patent US8415469B2, “Compounds and methods for kinase modulation, and indications therefor” (Plexxikon Inc., priority 2005, dated 2013)

Tests used:
Type in all cases: biochemical
B-Raf V600E = biological target: T1, B-Raf V600E (Homo sapiens, UniProt P15056, V600E); assay: AlphaScreen kinase assay, B-Raf V600E; details: read-out: IC50, activity toward kinase B-Raf V600E
T1 construct: P4254. pFastBacBD-CDC37 BRAF D437-K722-X, V600E; His6 with pFastBac HT leader (TEV site) (N); made in house; host or cells: Sf9 (baculovirus; chaperone CDC37 co-expressed)
T1 sequence (P15056 with tags, fused parts or gaps V600E): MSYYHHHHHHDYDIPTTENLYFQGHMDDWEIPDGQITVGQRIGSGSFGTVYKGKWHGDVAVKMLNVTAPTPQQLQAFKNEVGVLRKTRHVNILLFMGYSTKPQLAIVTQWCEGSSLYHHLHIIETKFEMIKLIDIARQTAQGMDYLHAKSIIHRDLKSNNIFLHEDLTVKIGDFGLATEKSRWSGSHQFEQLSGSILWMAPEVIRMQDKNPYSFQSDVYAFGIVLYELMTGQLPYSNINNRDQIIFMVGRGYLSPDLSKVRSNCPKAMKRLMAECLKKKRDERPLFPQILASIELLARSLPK

FGFR1 = biological target: T2, FGFR1 (Homo sapiens, UniProt P11362, C488A/C584S); assay: AlphaScreen kinase assay, FGFR1; details: read-out: IC50, activity toward kinase FGFR
T2 construct: P1351.pET N6 BI-PTP FGFR A458-E765-X C488A, C584S; made in house; host or cells: E. coli (PTP1B co-expressed)
T2 sequence (P11362 458-765 C488A/C584S): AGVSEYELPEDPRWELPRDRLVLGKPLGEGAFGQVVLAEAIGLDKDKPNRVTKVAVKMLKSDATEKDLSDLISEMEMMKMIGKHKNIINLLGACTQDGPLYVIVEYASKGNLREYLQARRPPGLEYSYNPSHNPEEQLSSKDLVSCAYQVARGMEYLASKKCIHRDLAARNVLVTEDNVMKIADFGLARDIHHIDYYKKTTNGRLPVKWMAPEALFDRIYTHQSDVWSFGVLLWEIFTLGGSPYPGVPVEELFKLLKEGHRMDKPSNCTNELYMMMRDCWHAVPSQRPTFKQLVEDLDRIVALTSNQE

Ret = biological target: T3, Ret (Homo sapiens, UniProt P07949); assay: AlphaScreen kinase assay, Ret; details: read-out: IC50, activity toward kinase Ret
T3 construct: P1378.pET-SF BI-PTP RET H661-R1012 HIS; made in house
T3 sequence (P07949 with tags, fused parts or gaps): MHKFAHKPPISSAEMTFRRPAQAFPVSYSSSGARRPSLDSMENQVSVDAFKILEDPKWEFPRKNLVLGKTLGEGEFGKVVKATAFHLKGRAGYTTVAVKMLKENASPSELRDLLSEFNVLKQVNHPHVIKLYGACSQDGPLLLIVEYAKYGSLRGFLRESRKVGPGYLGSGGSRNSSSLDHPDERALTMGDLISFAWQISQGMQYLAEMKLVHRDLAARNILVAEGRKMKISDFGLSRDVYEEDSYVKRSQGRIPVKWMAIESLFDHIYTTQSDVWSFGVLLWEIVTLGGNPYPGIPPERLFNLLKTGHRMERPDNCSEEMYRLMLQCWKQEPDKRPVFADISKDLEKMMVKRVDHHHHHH

Flt1 = biological target: T4, Flt1 (Homo sapiens, UniProt P17948); assay: AlphaScreen kinase assay, Flt1; details: read-out: IC50, activity toward kinase Flt1
T4 construct: P1826.pETN6 BI-PTP FLT1 M799-D1165-X WT; His6 (N); made in house; host or cells: E. coli (PTP1B co-expressed)
T4 sequence (P17948 with tags, fused parts or gaps): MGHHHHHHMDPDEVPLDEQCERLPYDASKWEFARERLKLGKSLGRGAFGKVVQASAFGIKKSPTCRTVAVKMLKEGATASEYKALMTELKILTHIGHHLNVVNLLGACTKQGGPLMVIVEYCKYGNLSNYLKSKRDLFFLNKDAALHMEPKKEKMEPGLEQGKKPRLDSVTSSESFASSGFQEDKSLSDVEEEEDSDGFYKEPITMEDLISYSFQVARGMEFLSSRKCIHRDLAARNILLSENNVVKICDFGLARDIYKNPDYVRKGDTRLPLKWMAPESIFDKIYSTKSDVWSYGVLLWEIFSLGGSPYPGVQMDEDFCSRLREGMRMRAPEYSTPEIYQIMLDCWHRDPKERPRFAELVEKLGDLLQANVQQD

Fms = biological target: T5, Fms (Homo sapiens, UniProt P07333); assay: AlphaScreen kinase assay, Fms; details: read-out: IC50, activity toward kinase Fms
T5 construct: purchased Upstate Biotechnology
T5 sequence (P07333 20-972): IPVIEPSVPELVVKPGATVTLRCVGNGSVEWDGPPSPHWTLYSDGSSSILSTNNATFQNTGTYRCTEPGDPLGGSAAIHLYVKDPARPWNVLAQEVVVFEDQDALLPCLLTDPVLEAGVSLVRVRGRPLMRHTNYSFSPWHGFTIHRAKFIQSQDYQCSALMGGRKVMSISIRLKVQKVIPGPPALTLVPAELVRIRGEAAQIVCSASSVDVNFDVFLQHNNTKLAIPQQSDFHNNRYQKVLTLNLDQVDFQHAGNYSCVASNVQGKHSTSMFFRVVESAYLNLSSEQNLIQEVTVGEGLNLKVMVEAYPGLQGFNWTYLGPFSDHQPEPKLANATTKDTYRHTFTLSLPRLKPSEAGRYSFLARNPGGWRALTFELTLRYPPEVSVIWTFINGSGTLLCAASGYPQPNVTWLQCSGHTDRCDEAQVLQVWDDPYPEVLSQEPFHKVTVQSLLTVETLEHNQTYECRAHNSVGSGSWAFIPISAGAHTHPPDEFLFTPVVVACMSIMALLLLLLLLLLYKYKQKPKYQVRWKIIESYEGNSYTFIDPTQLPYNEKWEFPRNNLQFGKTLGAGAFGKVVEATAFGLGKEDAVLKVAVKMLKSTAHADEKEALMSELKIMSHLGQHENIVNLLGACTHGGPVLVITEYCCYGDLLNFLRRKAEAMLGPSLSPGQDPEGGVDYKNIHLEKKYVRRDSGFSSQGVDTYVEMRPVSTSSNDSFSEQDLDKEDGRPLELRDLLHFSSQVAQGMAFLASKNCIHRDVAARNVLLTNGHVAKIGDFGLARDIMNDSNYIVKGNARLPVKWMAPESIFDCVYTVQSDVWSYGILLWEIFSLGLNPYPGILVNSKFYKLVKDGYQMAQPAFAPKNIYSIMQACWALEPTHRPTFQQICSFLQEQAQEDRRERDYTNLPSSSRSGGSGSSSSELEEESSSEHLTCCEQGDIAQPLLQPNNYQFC

Kit = biological target: T6, Kit (Homo sapiens, UniProt P10721); assay: AlphaScreen kinase assay, Kit; details: read-out: IC50, activity toward kinase Kit
T6 construct: P1332.N6 BI PTP KIT M552-K948-X COD; His6 (N); made in house; host or cells: E. coli (PTP1B co-expressed)
T6 sequence (P10721 with tags, fused parts or gaps): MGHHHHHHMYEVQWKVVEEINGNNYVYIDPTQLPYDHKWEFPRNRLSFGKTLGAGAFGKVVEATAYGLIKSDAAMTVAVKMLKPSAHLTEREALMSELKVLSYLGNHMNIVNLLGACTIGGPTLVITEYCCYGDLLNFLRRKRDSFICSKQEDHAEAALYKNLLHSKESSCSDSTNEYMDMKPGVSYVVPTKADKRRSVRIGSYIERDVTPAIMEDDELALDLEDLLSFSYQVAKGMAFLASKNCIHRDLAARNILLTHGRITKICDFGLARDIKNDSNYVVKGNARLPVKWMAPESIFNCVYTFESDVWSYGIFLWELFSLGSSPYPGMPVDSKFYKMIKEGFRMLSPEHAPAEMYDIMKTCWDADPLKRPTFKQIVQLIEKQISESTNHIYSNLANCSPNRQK

IC50 (B-Raf V600E) [µM] | IC50 (FGFR1) [µM] | IC50 (Ret) [µM] | IC50 (Flt1) [µM] | IC50 (Fms) [µM] | IC50 (Kit) [µM] | Structure (SMILES)
≤ 10 | ≤ 10 | ≤ 10 | – | – | – | O=C(c1c(F)cccc1F)c1c[nH]c2nccc(-c3cc(F)cc(F)c3)c12 [Compound P-0344]
– | – | – | ≤ 10 | ≤ 10 | – | Clc1ccc(Nc2c[nH]c3ncccc23)cc1 [Compound P-1491, (4-Chloro-phenyl)-(1H-pyrrolo[2,3-b]pyridin-3-yl)-amine]
– | – | – | ≤ 10 | – | – | COC(=O)Nc1cccc(C(=O)c2c[nH]c3ncc(Cl)cc23)c1 [Compound P-1619]
– | ≤ 10 | – | ≤ 10 | – | – | CN(C)c1ccc(Cc2c[nH]c3ncccc23)cc1 [Compound P-0150]
– | – | – | ≤ 10 | – | – | Fc1ccc(-c2c[nH]c3ncccc23)c(F)c1 [Compound P-0470]
– | ≤ 10 | – | ≤ 10 | – | ≤ 10 | CC(=O)Nc1cccc(-c2cnc3[nH]cc(C(=O)c4cccc(OC(F)F)c4)c3c2)c1 [Compound P-1424, N-{3-[3-(3-Difluoromethoxy-benzoyl)-1H-pyrrolo[2,3-b]pyridin-5-yl]-phenyl}-acetamide]
≤ 10 | ≤ 10 | ≤ 10 | – | – | ≤ 10 | COc1ccc(C(=O)c2c[nH]c3ncc(-c4cccs4)cc23)c(Cl)c1 [Compound P-0248]
– | ≤ 10 | – | ≤ 10 | – | – | O=C(c1c[nH]c2ccccc12)c1c[nH]c2ncc(Br)cc12 [Compound P-1624]
– | ≤ 10 | – | ≤ 10 | – | – | CS(=O)(=O)Nc1ccc(F)c(Cc2c[nH]c3ncccc23)c1F [Compound P-1603, N-[2,4-Difluoro-3-(1H-pyrrolo[2,3-b]pyridin-3-ylmethyl)-phenyl]-methanesulfonamide]
– | ≤ 10 | ≤ 10 | – | – | ≤ 10 | O=C(c1cc(F)ccc1F)c1c[nH]c2ncc(-c3ccsc3)cc12 [Compound P-0699]
– | – | ≤ 10 | – | – | ≤ 10 | O=C(c1cc(Cl)ccc1F)c1c[nH]c2ncc(-c3cccs3)cc12 [Compound P-0644]
– | ≤ 10 | ≤ 10 | – | – | ≤ 10 | O=C(c1ccccc1)c1c[nH]c2ncc(Br)cc12 [Compound P-0561]
≤ 10 | – | – | ≤ 10 | – | – | O=C(NCC(F)(F)F)Nc1ccc(F)c(Cc2c[nH]c3ncc(Cl)cc23)c1F [Compound P-1601, 1-[3-(5-Chloro-1H-pyrrolo[2,3-b]pyridin-3-ylmethyl)-2,4-difluoro-phenyl]-3-(2,2,2-trifluoro-ethyl)-urea]
– | – | – | ≤ 10 | – | – | CCOc1ccccc1C(O)c1c[nH]c2ncc(-c3cccnc3)cc12 (stereo not shown) [Compound P-1533]
– | – | ≤ 10 | – | – | ≤ 10 | O=C(c1ccccc1)c1c[nH]c2ncc(Br)c([N+](=O)[O-])c12 [Compound P-0736]
– | – | – | ≤ 10 | ≤ 10 | – | O=C(c1ccc(NCc2ccc(C(F)(F)F)cc2)nc1)c1c[nH]c2ncccc12 [Compound P-0461]
– | ≤ 10 | ≤ 10 | – | – | ≤ 10 | COc1cccc(C(=O)c2c[nH]c3ncc(Br)cc23)c1 [Compound P-0341]
– | – | – | ≤ 10 | ≤ 10 | – | CCCCNC(=O)Nc1ccc(F)c(Cc2c[nH]c3ncc(Cl)cc23)c1F [Compound P-1587, 1-Butyl-3-[3-(5-chloro-1H-pyrrolo[2,3-b]pyridin-3-ylmethyl)-2,4-difluoro-phenyl]-urea]
≤ 10 | ≤ 10 | ≤ 10 | – | – | – | Cc1ccc(F)cc1C(=O)c1c[nH]c2nccc(-c3cccc(C(N)=O)c3)c12 [Compound P-0976]
– | – | – | ≤ 10 | – | ≤ 10 | CC(=O)Nc1cccc(-c2cnc3[nH]cc(C(=O)c4cccc(OC(F)(F)F)c4)c3c2)c1 [Compound P-1422, N-{3-[3-(3-Trifluoromethoxy-benzoyl)-1H -pyrrolo[2,3-b]pyridin-5-yl]-phenyl}-acetamide]
≤ 10 | – | – | ≤ 10 | – | ≤ 10 | O=C(c1ccc(Nc2ccccc2)nc1)c1c[nH]c2ncccc12 [Compound P-1160]

IC50 (B-Raf V600E) [µM] | IC50 (FGFR1) [µM] | IC50 (Ret) [µM] | IC50 (Flt1) [µM] | IC50 (Fms) [µM] | IC50 (Kit) [µM] | Structure (SMILES)
– | – | ≤ 10 | – | – | ≤ 10 | O=C(c1ccc(Cl)cc1)c1c[nH]c2ncc(Br)cc12 [Compound P-1033]
– | – | – | ≤ 10 | ≤ 10 | – | CCCCNC(=O)Nc1ccc(F)c(Cc2c[nH]c3ncc(OC)cc23)c1F [Compound P-1571, 1-Butyl-3-[2,4-difluoro-3-(5-methoxy-1H-pyrrolo[2,3-b]pyridin-3-ylmethyl)-phenyl]-urea]
– | – | – | ≤ 10 | ≤ 10 | – | CS(=O)(=O)c1cccc(-c2cnc3[nH]cc(Cc4c(F)ccc(NC(=O)NC5CCCC5)c4F)c3c2)c1 [Compound P-1615, 1-Cyclopentyl-3-{2,4-difluoro-3-[5-(3-methanesulfonyl-phenyl)-1H-pyrrolo[2,3-b]pyridin-3-ylmethyl]-phenyl}-urea]
≤ 10 | ≤ 10 | ≤ 10 | – | – | – | O=C(c1ccccc1)c1c[nH]c2nccc([N+](=O)[O-])c12 [Compound P-0246]
– | – | – | ≤ 10 | – | ≤ 10 | O=C(c1ccc(Cl)cc1Cl)c1c[nH]c2ncc(-c3ccccc3)cc12 [Compound P-1557]
– | – | – | ≤ 10 | – | – | Cc1ccccc1S(=O)(=O)NCc1c[nH]c2ncccc12 [Compound P-0768]
– | ≤ 10 | – | ≤ 10 | – | – | NC(=O)c1cccc(-c2cnc3[nH]ccc3c2)c1 [Compound P-1622, 3-(1H-Pyrrolo[2,3-b]pyridin-5-yl)-benzamide]
≤ 10 | – | ≤ 10 | – | – | ≤ 10 | COc1cccc(Cc2c[nH]c3nccc(-c4ccsc4)c23)n1 [Compound P-0810]
– | ≤ 10 | ≤ 10 | – | – | – | COc1cccc(C(=O)c2c[nH]c3nccc(-c4cccc(/C=C/C(=O)O)c4)c23)c1 [Compound P-1066]
– | ≤ 10 | ≤ 10 | – | – | ≤ 10 | COc1cccc(Cc2c[nH]c3ncc(-c4ccsc4)cc23)c1 [Compound P-0392]
– | ≤ 10 | ≤ 10 | – | – | – | O=C(c1cccc(Cl)c1Cl)c1c[nH]c2nccc(Cl)c12 [Compound P-0232]
– | – | – | ≤ 10 | ≤ 10 | – | c1ccc(CNc2ccc(Cc3c[nH]c4ncccc34)cn2)cc1 [Compound P-0733]
≤ 10 | ≤ 10 | – | ≤ 10 | – | – | CS(=O)(=O)c1cccc(-c2cnc3[nH]cc(Cc4c(F)ccc(N)c4F)c3c2)c1 [Compound P-1614]
– | – | – | ≤ 10 | – | – | c1ccc(C(CNCc2c[nH]c3ncccc23)c2ccccc2)cc1 [Compound P-0514]
– | ≤ 10 | ≤ 10 | – | – | – | Cc1cc(C(=O)c2c[nH]c3ncc(-c4cccnc4)cc23)no1 [Compound P-0826]
– | ≤ 10 | ≤ 10 | – | – | ≤ 10 | Clc1ccc(Cc2c[nH]c3ncc(-c4ccsc4)cc23)cn1 [Compound P-0385]
≤ 10 | – | – | ≤ 10 | – | – | O=S(=O)(NCc1c[nH]c2ncccc12)c1cc(Cl)sc1Cl [Compound P-0603]
– | ≤ 10 | ≤ 10 | – | – | – | COc1cccc(C(=O)c2c[nH]c3nccc(-c4cccc(NC(C)=O)c4)c23)c1 [Compound P-0363]
– | ≤ 10 | ≤ 10 | – | ≤ 10 | ≤ 10 | c1cc(Cc2c[nH]c3ncc(-c4ccsc4)cc23)cc(OCCOC2CCCCO2)c1 (stereo not shown) [Compound P-0835]
– | – | ≤ 10 | – | – | ≤ 10 | Cc1cc(C(=O)c2c[nH]c3ncc(-c4cccc(NS(C)(=O)=O)c4)cc23)n(C)n1 [Compound P-0825]
– | – | – | ≤ 10 | – | – | CCCn1cccc1C(c1c[nH]c2ncc(-c3cccnc3)cc12)n1ccc2cc(-c3cccnc3)cnc21 (stereo not shown) [Compound P-1686]
